From paper PMC8635125, “A Novel Dibenzoxazepine Attenuates Intracellular Salmonella Typhimurium Oxidative Stress Resistance” (Microbiology Spectrum, 2021)

Tested on: ROS levels in Salmonella-infected RAW264.7 cells
Assay: Analysis of ROS in macrophages (H2DCFDA)
Type: cell-based, murine
Settings: 1 h; SW14 at concentrations up to 8 μM
Experimental: RAW264.7 macrophages were seeded in 96-well black plates and infected by S. Typhimurium ATCC 14028 at an MOI of 25 for 1 h. After infection, the cells were washed, exposed to 100 mg/L gentamicin for 1 h, washed with warm Krebs-Ringer phosphate buffer (KRP buffer; 120 mM NaCl, 5 mM KCl, 1.7 mM KH2PO4, 8.3 mM Na2HPO4, 10 mM glucose, 1 mM CaCl2, 1.5 mM MgCl2, pH 7.3) and stained with H2DCFDA at 37°C with 5% CO2 for 45 min. The cells were then washed with KRP buffer and treated with SW14 or PMA at the desired concentrations in KRP buffer with 10% FBS. Fluorescence signals at 488/525 nm (excitation/emission) were measured using a SpectraMax M5 Microplate Reader (Molecular Devices).

Compound: Clc1ccc2c(c1)C(NCCN1CCNCC1)=Nc1ccccc1O2 [SW14]
- ROS level (H2DCFDA fluorescence signal) in infected macrophages: did not observe any significant change
